Values quoted from earlier work in US20020132846A1, “Use of gamma substituted gamma-butyrolactones to increase levels of their corresponding substituted gamma-hydroxybutyrate derivatives in humans” (priority 2001, published 2002).

Legend:
[1] = used according to prescribed dosing levels and schedules
lactonase = conditions: oral ingestion, lactonase catalyzed hydrolysis; reference (7)

In the case of O=C(O)CCCO [gamma-hydroxybutyrate], the “physical or psychological addiction” value [1] is given as “no reports of physical or psychological addiction”.

For CC(O)CCC(=O)O (stereo not shown) [4-methyl substituted gamma-hydroxybutyrate], the “affinity for the GHB receptor” value (GHB receptor; compared with gamma-hydroxybutyrate itself) is listed as “greater affinity than gamma-hydroxybutyrate itself” and the “more potent at the receptor than gamma-hydroxybutyrate itself” value (GHB receptor; relative to gamma-hydroxybutyrate, reference (8)) is listed as 15%.

For O=C1CCCO1 [gamma-butyrolactone], the “formation of the parent compound gamma-hydroxybutyrate” value (lactonase) is given as “rapidly forms the parent compound”.
